Laboratory results from patent US7504412B2, “Imidazopyridine derivatives” (Banyu Pharmaceuticals, Co., Ltd., priority 2003, dated 2009).
Counter-ions that a name gives are not always drawn.

Target: T1, human MCH-1R (Homo sapiens, UniProt Q99705)
T1 construct: expressed in transfected cells; host or cells: CHO-K1 (American Type Culture Collection), membrane samples
Assay: MCH binding inhibition test
Conditions: membrane samples from MCH-1R expression CHO-K1 cells, 50 pM [125I]MCH, 25° C., one hour; read-out: IC50 (50% inhibition concentration to specific [125I]MCH binding)
Experimental: A human MCH-1R encoding cDNA sequence [FEBS Letters, 398, 253 (1996); Biochimica et Biophisica Acta, 1401, 216 (1998)] was cloned to plasmid vector pEF/mic/cyto (Invitrogen Corporation). The obtained expression vector was transfected to a host cell CHO-K1 (American Type Culture Collection) using lipofectamine plus reagent (Life Technology Inc.) to provide MCH-1R expression cells.
Membrane samples prepared from the MCH-1R expression cells were incubated with each test compound and 50 pM of [^125I]MCH (NEN Co.), in an assay buffer (50 mM Tris buffer comprising 10 mM magnesium chloride, 2 mM ethylenediamine tetraacetate, 0.01% bacitracin and 0.2% bovine serum albumin; pH 7.4) at 25° C. for an hour, followed by filtration through Glass Filter GF/C (Wattman Co.). After washing the glass filter with 50 mM Tris buffer (pH7.4) comprising 10 mM magnesium chloride, 2 mM ethylenediamine tetraacetate and 0.04% Tween-20, radio activity on the glass filter was measured. Non-specific binding was measured in the presence of 1 μM human MCH and 50% inhibition concentration (IC50 value) of each test compound to specific [^125I] MCH binding was determined.

T1 sequence (Q99705 whole entry): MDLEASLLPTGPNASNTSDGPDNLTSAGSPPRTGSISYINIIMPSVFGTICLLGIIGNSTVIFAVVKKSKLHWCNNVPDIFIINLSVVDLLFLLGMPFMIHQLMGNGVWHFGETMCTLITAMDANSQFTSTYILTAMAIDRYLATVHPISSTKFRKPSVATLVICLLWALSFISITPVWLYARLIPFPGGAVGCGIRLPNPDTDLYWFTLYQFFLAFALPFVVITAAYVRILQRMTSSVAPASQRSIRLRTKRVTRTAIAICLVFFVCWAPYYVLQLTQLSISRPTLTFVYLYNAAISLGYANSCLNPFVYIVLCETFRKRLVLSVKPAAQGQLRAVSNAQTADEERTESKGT

Row | SMILES | IC50 [nM]
1 | CC(C)c1cn2cc(NC(=O)c3ccc(-c4ccc(F)cc4)cc3)ccc2n1 [Example 2, 4′-Fluoro-N-(2-isopropylimidazo[1,2-a]pyridin-6-yl)[1,1′-biphenyl]-4-carboxamide] | 3.1
2 | Cc1c(C2CC2)nc2ccc(NC(=O)c3ccc(-c4ccc(F)cc4)cn3)cn12 [Example 14, N-(2-cyclopropyl-3-methylimidazo[1,2-a]pyridin-6-yl)-5-(4-fluorophenyl)-2-pyridinecarboxamide hydrochloride] | 2
3 | Cc1c(C2CC2)nc2ccc(NC(=O)c3ccc(-c4ccccn4)cc3)cn12 [Example 17, N-(2-cyclopropyl-3-methylimidazo[1,2-a]pyridin-6-yl)-4-(2-pyridyl)benzamide hydrochloride] | 3.3
4 | Cc1c(C2CC2)nc2ccc(NC(=O)CCc3ccc(C(F)(F)F)cc3)cn12 [Example 18, N-(2-cyclopropyl-3-methylimidazo[1,2-a]pyridin-6-yl)-3-[4-(trifluoromethyl)phenyl]propanamide] | 4.3
5 | Cc1c(C(C)(C)O)nc2ccc(NC(=O)c3ccc(-c4ccc(C(F)(F)F)cn4)cc3)cn12 [Example 32, N-[2-(1-hydroxy-1-methylethyl)-3-methylimidazo[1,2-a]-pyridin-6-yl]-4-[5-(trifluoromethyl)-2-pyridyl]benzamide] | 9.5
6 | O=C(Nc1ccc2nc(C3CC3)c(CO)n2c1)c1ccc(-c2ccc(C(F)(F)F)cc2)cc1 [Example 36, N-[2-cyclopropyl-3-(hydroxymethyl)imidazo[1,2-a]pyridin-6-yl]-4′-(trifluoromethyl)[1,1′-biphenyl]-4-carboxamide] | 10.5

Tested on: MCH-induced feeding behavior
Assay: Antagonism test to MCH-induced feeding behavior
Format: in vivo, rat
Conditions: male SD rats satiated with high fat diet; 10 or 30 mg/kg oral, one hour before MCH 5 μg/head into third ventricle
Experimental: Ketamine-xylazine anesthetized (74 and 11 mg/kg single intraperitoneal administration) male SD rats (9-12 weeks old) were inserted with chronic guide cannule (26 gauge) into their third ventricle as fixed at a set cerebral location with dental resin. The position of the front end of the guide cannula was set to be 2.2 mm behind the bregma on median line and at a depth of 8 mm from the cranial surface. After two weeks' recovery term, the rats were fed with high fat diet for about 4 hours to satiation. Thereafter a needle (33 gauge) which was connected to a microsyringe was inserted into the guide cannula and through which melanin concentrating hormone (MCH, 5 μg/1 μL/head, as dissolved in artificial liquor cerebrospinalis) was administered into each rat's third ventricle. The compound of Example 17 (10 or 30 mg/kg) as suspended in 0.5% aqueous methylcellulose solution was orally administered to the rats an hour before the MCH administration. The rats were successively fed with high fat diet, and their feed intake during the two hours following the MCH administration was measured.
In this test, the feed intake in the case where MCH and artificial liquor cerebrospinalis (aCSF) alone was administered in place of the compound of the present invention was used as the reference.

Row | SMILES | feed intake during the two hours following MCH administration
7 | Cc1c(C2CC2)nc2ccc(NC(=O)c3ccc(-c4ccccn4)cc3)cn12 [Example 17, N-(2-cyclopropyl-3-methylimidazo[1,2-a]pyridin-6-yl)-4-(2-pyridyl)benzamide hydrochloride] | dose-dependently inhibited increase in the amount of feed intake induced by the MCH
